# Reference: US20090208747A1, “Novel Crystalline Methods and Novel Crystalline and Amorphous forms of Halogenated Sugars” (V.B. MEDICARE PVT. LTD, priority 2006, published 2009)
# Where two headings read alike, the source gives them in different places.
# Key:
# [1] = Particle size analysis; details: for particle size distribution at 90%: 90% of particles below this size
# Procedure: The TGS crystals obtained were tested for purity and particle size.
# The solids obtained were tested for purity, particle size and X ray diffraction for the nature of solid obtained.
# [2] = Stability testing as per ICH Guideline Q1A(R2), storage stability; type: physicochemical
# Description: Stability testing was done as per ICH Harmonised Tripaertite Guideline Stability Testing of New drug substances and Products Q1A(R2) issued by International Conference on Hamonization of technical requirements for registration of pharmaceuticals for human use and recommended for adoption at Step 4 of the ICH Process on 6 Feb.
# Details are given on table nos 1 to 4 given in the following: […]
# [3] = Accelerated stability test, sealed containers incubated at 50° C.; type: physicochemical; details: sealed container
# Procedure: For extrapolating potential storage stability beyond one year, an accelerated storage stability test was conducted. In this test, crystalline TGS of small and large mean particle size was incubated at 50° C. in sealed containers. Percent assay and pH were tested after each 24 hours for five successive days. […] A three days' stability in accelerated stability test is extrapolated by Catani et al (2005) to 8 years of storage stability at ambient temperature.
# All the three samples were taken in sealed containers and were incubated at 50° C. […]
# [4] = Analysis against JECFA specifications: solubility; type: physicochemical; details: in ethyl acetate
# [5] = 25° C. ± 2° C. 60% RH ± 5% RH, 1st month
# [6] = 25° C. ± 2° C. 60% RH ± 5% RH, 2nd month
# [7] = 25° C. ± 2° C. 60% RH ± 5% RH, 3rd month
# [8] = 25° C. ± 2° C. 60% RH ± 5% RH, 4th month
# [9] = 25° C. ± 2° C. 60% RH ± 5% RH, 5th month
# [10] = 25° C. ± 2° C. 60% RH ± 5% RH, 6th month
# [11] = 25° C. ± 2° C. 60% RH ± 5% RH, 12th month
# [12] = 25° C. ± 2° C. 60% RH ± 5% RH, 24th month
# [13] = 25° C. ± 2° C. 60% RH ± 5% RH, INITIAL
# [14] = 30° C. ± 2° C. 65% RH ± 5% RH, 1st month
# [15] = 30° C. ± 2° C. 65% RH ± 5% RH, 2nd month
# [16] = 30° C. ± 2° C. 65% RH ± 5% RH, 3rd month
# [17] = 30° C. ± 2° C. 65% RH ± 5% RH, 4th month
# [18] = 30° C. ± 2° C. 65% RH ± 5% RH, 5th month
# [19] = 30° C. ± 2° C. 65% RH ± 5% RH, 6th month
# [20] = 30° C. ± 2° C. 65% RH ± 5% RH, 12th month
# [21] = 30° C. ± 2° C. 65% RH ± 5% RH, 24th month
# [22] = 30° C. ± 2° C. 65% RH ± 5% RH, INITIAL
# [23] = 40° C. ± 2° C. 75% RH ± 5% RH, 1st month
# [24] = 40° C. ± 2° C. 75% RH ± 5% RH, 2nd month
# [25] = 40° C. ± 2° C. 75% RH ± 5% RH, 3rd month
# [26] = 40° C. ± 2° C. 75% RH ± 5% RH, 4th month
# [27] = 40° C. ± 2° C. 75% RH ± 5% RH, 5th month
# [28] = 40° C. ± 2° C. 75% RH ± 5% RH, 6th month
# [29] = 40° C. ± 2° C. 75% RH ± 5% RH, 12th month
# [30] = 40° C. ± 2° C. 75% RH ± 5% RH, 24th month
# [31] = 40° C. ± 2° C. 75% RH ± 5% RH, INITIAL
# [32] = First day, listed as Crystalline TGS crystallized from butanol:methanol mixture
# [33] = Fourth day, listed as Crystalline TGS crystallized from butanol:methanol mixture
structure (smiles),measurement,setting,value
"OC[C@H]1O[C@H](O[C@]2(CCl)O[C@H](CCl)[C@@H](O)[C@@H]2O)[C@H](O)[C@@H](O)[C@H]1Cl [Example 6, 1′-6′-Dichloro-1′-6′-DIDEOXY-β-Fructofuranasyl-4-chloro-4-deoxy-galactopyranoside]",particle size distribution at 90%,[1],below 12 microns
"OC[C@H]1O[C@H](O[C@]2(CCl)O[C@H](CCl)[C@@H](O)[C@@H]2O)[C@H](O)[C@@H](O)[C@H]1Cl [Crystalline TGS small particle size, 1′-6′-Dichloro-1′-6′-DIDEOXY-β-Fructofuranasyl-4-chloro-4-deoxy-galactopyranoside]",Appearance,[2]; [5],Normal
same,Assay,[2]; [5],99.02%
same,Specific Rotation,[2]; [5],+85.99°
same,Water content,[2]; [5],0.73%
same,Appearance,[2]; [6],Normal
same,Assay,[2]; [6],99.04%
same,Specific Rotation,[2]; [6],+84.63°
same,Water content,[2]; [6],0.63%
same,Appearance,[2]; [7],Normal
same,Assay,[2]; [7],99.05%
same,Specific Rotation,[2]; [7],+85.31°
same,Water content,[2]; [7],0.22%
same,Appearance,[2]; [8],Normal
same,Specific Rotation,[2]; [8],+84.20°
same,Water content,[2]; [8],0.41%
same,Appearance,[2]; [9],Normal
same,Assay,[2]; [9],98.42%
same,Specific Rotation,[2]; [9],+87.22°
same,Water content,[2]; [9],0.17%
same,Appearance,[2]; [10],Normal
same,Assay,[2]; [10],99.07%
same,Specific Rotation,[2]; [10],+86.78°
same,Water content,[2]; [10],0.23%
same,Appearance,[2]; [11],Normal
same,Assay,[2]; [11],99.02%
same,Specific Rotation,[2]; [11],+85.93°
same,Water content,[2]; [11],0.33%
same,Appearance,[2]; [12],Normal
same,Assay,[2]; [12],98.78%
same,Specific Rotation,[2]; [12],+84.63°
same,Water content,[2]; [12],0.53%
same,Appearance,[2]; [13],Normal
same,Specific Rotation,[2]; [13],+86.07°
same,Water content,[2]; [13],0.52%
same,Appearance,[2]; [14],Normal
same,Specific Rotation,[2]; [14],+86.01°
same,Water content,[2]; [14],0.69%
same,Appearance,[2]; [15],Normal
same,Specific Rotation,[2]; [15],+85.11°
same,Water content,[2]; [15],0.19%
same,Appearance,[2]; [16],Normal
same,Assay,[2]; [16],100.62%
same,Specific Rotation,[2]; [16],+86.29°
same,Water content,[2]; [16],0.28%
same,Appearance,[2]; [17],Normal
same,Assay,[2]; [17],99.95%
same,Specific Rotation,[2]; [17],+86.67°
same,Water content,[2]; [17],0.24%
same,Appearance,[2]; [18],Normal
same,Assay,[2]; [18],99.88%
same,Specific Rotation,[2]; [18],+87.58°
same,Water content,[2]; [18],0.18%
same,Appearance,[2]; [19],Normal
same,Assay,[2]; [19],99.43%
same,Specific Rotation,[2]; [19],+84.35°
same,Water content,[2]; [19],0.42%
same,Appearance,[2]; [20],Normal
same,Specific Rotation,[2]; [20],+85.62°
same,Water content,[2]; [20],0.66%
same,Appearance,[2]; [21],Normal
same,Assay,[2]; [21],98.82%
same,Specific Rotation,[2]; [21],+86.73°
same,Water content,[2]; [21],0.70%
same,Appearance,[2]; [22],Normal
same,Specific Rotation,[2]; [22],+86.07°
same,Water content,[2]; [22],0.52%
same,Appearance,[2]; [23],Normal
same,Assay,[2]; [23],99.06%
same,Specific Rotation,[2]; [23],+86.01°
same,Water content,[2]; [23],0.73%
same,Appearance,[2]; [24],Normal
same,Assay,[2]; [24],99.04%
same,Specific Rotation,[2]; [24],+86°
same,Water content,[2]; [24],1.10%
same,Appearance,[2]; [25],Normal
same,Specific Rotation,[2]; [25],+85.16°
same,Water content,[2]; [25],0.27%
same,Appearance,[2]; [26],Normal
same,Specific Rotation,[2]; [26],+85.81°
same,Water content,[2]; [26],0.22%
same,Appearance,[2]; [27],Normal
same,Assay,[2]; [27],98.96%
same,Specific Rotation,[2]; [27],+85.74°
same,Water content,[2]; [27],0.20%
same,Appearance,[2]; [28],Normal
same,Assay,[2]; [28],98.82%
same,Specific Rotation,[2]; [28],+82.67°
same,Water content,[2]; [28],0.49%
same,Appearance,[2]; [29],Normal
same,Assay,[2]; [29],98.75%
same,Specific Rotation,[2]; [29],+86.01°
same,Water content,[2]; [29],0.73%
same,Appearance,[2]; [30],Normal
same,Assay,[2]; [30],98.52%
same,Specific Rotation,[2]; [30],+86°
same,Water content,[2]; [30],1.10%
same,Appearance,[2]; [31],Normal
same,Specific Rotation,[2]; [31],+86.07°
same,Water content,[2]; [31],0.52%
same,stability in storage,"[2]; storage, listed as crystalline TGS of this invention",stable in storage for one year
same,Assay (%),[3]; [32],99.2%
same,PH,[3]; [32],7.90
same,Assay (%),[3]; [33],99.12%
same,PH,[3]; [33],7.62
same,percent assay as well as pH,[3]; over the test period,stable
same,Solubility,[4],water. Slightly
same,mean particle size,[1],about 4.2 micron
same,particle size distribution at 90%,[1]; listed as Example 2,below 10 microns
same,particle size distribution at 90%,[1]; listed as crystallized product,< 10 microns
same,mean particle size,[1]; listed as Example 2,4.2 micron
"OC[C@H]1O[C@H](O[C@]2(CCl)O[C@H](CCl)[C@@H](O)[C@@H]2O)[C@H](O)[C@@H](O)[C@H]1Cl [Example 4, 1′-6′-Dichloro-1′-6′-DIDEOXY-β-Fructofuranasyl-4-chloro-4-deoxy-galactopyranoside]",particle size distribution at 90%,[1],< 95 microns
OC[C@H]1O[C@H](O[C@]2(CCl)O[C@H](CCl)[C@@H](O)[C@@H]2O)[C@H](O)[C@@H](O)[C@H]1Cl [1′-6′-Dichloro-1′-6′-DIDEOXY-β-Fructofuranasyl-4-chloro-4-deoxy-galactopyranoside],Assay (%),[3]; Fifth day,96.86%
same,PH,[3]; Fifth day,7.00
same,Assay (%),[3]; First day,98.73%
same,PH,[3]; First day,7.08
same,Assay (%),[3]; Fourth day,97.06%
same,PH,[3]; Fourth day,7.00
same,Assay (%),[3]; Second day,98.21%
same,PH,[3]; Second day,7.08
same,Assay (%),[3]; Sixth day,96.72%
same,PH,[3]; Sixth day,7.02
same,Assay (%),[3]; Third day,97.53%
same,PH,[3]; Third day,7.02
same,decline in percent assay,[3]; by fifth day,1.87%
same,decline in percent assay,[3]; by sixth day,2.01%
same,decline in percent assay,"[3]; in first three days, listed as large particle size crystalline TGS",1.2%
same,difference in pH,[3]; over the test period,not substantial
same,particle size distribution at 90%,[1]; listed as Example 5,below 240 microns
same,mean particle size,[1]; listed as Crystalline TGS (big particle size),about 35 micron
